Each compound was assayed against T1, PI3K delta (Homo sapiens, UniProt O00329) (assay: PI3K delta kinase assay (Kinase-Glo luminescence)). Details: read-out: EPK_PI3Kdelta/IC50.
T1 construct: for the full-length p110-d subunit are generated and fused by overlapping PCR; His tag (C); made in house; host or cells: baculovirus BV1060; Tn5 (Trichoplusia ni) or TiniPro insect cells
Assay type: biochemical
Method in brief: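 IC50s derive from 8-point inhibition curves fitted to a 4-parameter logistic model. Reaction: 10 nM purified p110δ/p85 iSH2 fusion, 1 μM ATP, 10 μg/mL PI substrate, pH 7.5 Tris buffer with MgCl2, NaCl, CHAPS and DTT, run 60 min at room temperature; remaining ATP read by Kinase-Glo luminescence.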

T1 sequence (O00329 with tags, fused parts or gaps limits assumed): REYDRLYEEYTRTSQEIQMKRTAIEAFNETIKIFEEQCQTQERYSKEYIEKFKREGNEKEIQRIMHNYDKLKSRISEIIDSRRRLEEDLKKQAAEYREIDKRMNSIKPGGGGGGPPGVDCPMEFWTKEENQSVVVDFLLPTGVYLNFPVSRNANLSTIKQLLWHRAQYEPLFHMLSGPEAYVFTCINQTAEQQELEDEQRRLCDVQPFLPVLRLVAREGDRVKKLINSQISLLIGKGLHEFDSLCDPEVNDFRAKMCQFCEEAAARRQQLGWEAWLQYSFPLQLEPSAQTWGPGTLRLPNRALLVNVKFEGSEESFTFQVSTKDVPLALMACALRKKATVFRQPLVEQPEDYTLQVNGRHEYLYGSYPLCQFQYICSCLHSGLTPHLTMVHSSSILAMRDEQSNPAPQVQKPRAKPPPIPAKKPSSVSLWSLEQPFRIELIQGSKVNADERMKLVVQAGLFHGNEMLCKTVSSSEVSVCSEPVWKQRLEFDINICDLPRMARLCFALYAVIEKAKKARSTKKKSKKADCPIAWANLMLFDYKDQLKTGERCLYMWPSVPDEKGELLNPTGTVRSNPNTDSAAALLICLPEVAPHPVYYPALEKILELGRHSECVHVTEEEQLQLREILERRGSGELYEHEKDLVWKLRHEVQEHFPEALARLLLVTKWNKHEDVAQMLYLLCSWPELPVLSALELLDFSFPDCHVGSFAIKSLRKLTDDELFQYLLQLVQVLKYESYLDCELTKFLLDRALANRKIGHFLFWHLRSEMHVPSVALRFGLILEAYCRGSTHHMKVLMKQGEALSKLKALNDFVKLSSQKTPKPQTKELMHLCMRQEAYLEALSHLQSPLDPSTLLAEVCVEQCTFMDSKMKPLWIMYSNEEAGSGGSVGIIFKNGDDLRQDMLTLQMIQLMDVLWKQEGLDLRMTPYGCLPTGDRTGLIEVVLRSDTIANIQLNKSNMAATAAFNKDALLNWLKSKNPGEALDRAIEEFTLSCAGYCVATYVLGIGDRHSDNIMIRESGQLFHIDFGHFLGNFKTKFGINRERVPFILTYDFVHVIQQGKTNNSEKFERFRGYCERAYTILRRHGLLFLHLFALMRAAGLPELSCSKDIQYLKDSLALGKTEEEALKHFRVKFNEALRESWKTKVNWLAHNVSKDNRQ

| Compound | IC50 [nM] |
| --- | --- |
| CCOc1ccc(-c2ccc3ncc4c(c3c2)n(-c2ccc(NC(=O)COC)nc2C)c(=O)n4C)cn1 [Example 20.2, N-{5-[8-(6-Ethoxy-pyridin-3-yl)-3-methyl-2-oxo-2,3-dihydro-imidazo[4,5-c]quinolin-1-yl]-6-methyl-pyridin-2-yl}-2-methoxy-acetamide] | 247 |
| CNc1ncc(-c2ccc3ncc4c(c3c2)n(-c2ccc(NC(=O)COC)nc2C)c(=O)n4C)cn1 [Example 20.3, 2-Methoxy-N-{6-methyl-5-[3-methyl-8-(2-methylamino-pyrimidin-5-yl)-2-oxo-2,3-dihydro-imidazo[4,5-c]quinolin-1-yl]-pyridin-2-yl}-acetamide] | 403 |
| CNc1ccc(-c2ccc3ncc4c(c3c2)n(-c2ccc(N3CCCC3)nc2C)c(=O)n4C)cn1 [Example 25.1, 3-Methyl-8-(6-methylamino-pyridin-3-yl)-1-(2-methyl-6-pyrrolidin-1-yl-pyridin-3-yl)-1,3-dihydro-imidazo[4,5-c]quinolin-2-one] | 24 |
| Cc1nc(N2CC(F)(F)C2)ccc1-n1c(=O)n(C)c2cnc3ccc(-c4cncc(C(C)(C)O)c4)cc3c21 [Example 24.2, 1-[6-(3,3-Difluoro-azetidin-1-yl)-2-methyl-pyridin-3-yl]-8-[5-(1-hydroxy-1-methyl-ethyl)-pyridin-3-yl]-3-methyl-1,3-dihydro-imidazo[4,5-c]quinolin-2-one] | 18 |
| Cc1nc(N2CC(F)(F)C(F)(F)C2)ccc1-n1c(=O)n(C)c2cnc3ccc(-c4cncc(C(C)(C)O)c4)cc3c21 [Example 35.1, 8-[5-(1-Hydroxy-1-methyl-ethyl)-pyridin-3-yl]-3-methyl-1-[2-methyl-6-(3,3,4,4-tetrafluoro-pyrrolidin-1-yl)-pyridin-3-yl]-1,3-dihydro-imidazo[4,5-c]quinolin-2-one] | 5 |
| CCOc1ccc(-c2ccc3ncc4c(c3c2)n(-c2cncc(C)c2)c(=O)n4C)cn1 [Example 17.1, 8-(6-Ethoxy-pyridin-3-yl)-3-methyl-1-(5-methyl-pyridin-3-yl)-1,3-dihydro-imidazo[4,5-c]quinolin-2-one] | 275 |
| Cc1nc(N2CCC(O)C2)ccc1-n1c(=O)n(C)c2cnc3ccc(-c4cncc(OC(C)C)c4)cc3c21 (centres unmarked) [Example 27.1, 1-[6-(3-Hydroxy-pyrrolidin-1-yl)-2-methyl-pyridin-3-yl]-8-(5-isopropoxy-pyridin-3-yl)-3-methyl-1,3-dihydro-imidazo[4,5-c]quinolin-2-one] | 9 |
| CNc1ccc(-c2ccc3ncc4c(c3c2)n(-c2ccc(NC(=O)COC)nc2C)c(=O)n4C)cn1 [Example 20.4, 2-Methoxy-N-{6-methyl-5-[3-methyl-8-(6-methylamino-pyridin-3-yl)-2-oxo-2,3-dihydro-imidazo[4,5-c]quinolin-1-yl]-pyridin-2-yl}-acetamide] | 78 |

Continued, values first:

| IC50 [nM] | Compound |
| --- | --- |
| 28 | Cc1ccc(-n2c(=O)n(C)c3cnc4ccc(-c5cnc6c(ccn6C)c5)cc4c32)c(C)n1 [Example 14.7, 1-(2,6-Dimethyl-pyridin-3-yl)-3-methyl-8-(1-methyl-1H-pyrrolo[2,3-b]pyridin-5-yl)-1,3-dihydro-imidazo[4,5-c]quinolin-2-one] |
| 56 | COCCOc1ccc(-n2c(=O)n(C)c3cnc4ccc(-c5cnc(COC)c(OC)c5)cc4c32)c(C)n1 [Example 22.3, 1-[6-(2-Methoxy-ethoxy)-2-methyl-pyridin-3-yl]-8-(5-methoxy-6-methoxymethyl-pyridin-3-yl)-3-methyl-1,3-dihydro-imidazo[4,5-c]quinolin-2-one] |
| 40 | COCCN(C)c1ccc(-n2c(=O)n(C)c3cnc4ccc(-c5cnc(CO)c(OC)c5)cc4c32)c(C)n1 [Example 15.9, 8-(6-Hydroxymethyl-5-methoxy-pyridin-3-yl)-1-{6-[(2-methoxy-ethyl)-methyl-amino]-2-methyl-pyridin-3-yl}-3-methyl-1,3-dihydro-imidazo[4,5-c]quinolin-2-one] |
| 101 | COCCOc1ccc(-n2c(=O)n(C)c3cnc4ccc(-c5cncc(N6CCC6)c5)cc4c32)c(C)n1 [Example 22.2, 8-(5-Azetidin-1-yl-pyridin-3-yl)-1-[6-(2-methoxy-ethoxy)-2-methyl-pyridin-3-yl]-3-methyl-1,3-dihydro-imidazo[4,5-c]quinolin-2-one] |
| 55 | CCNc1cc(-c2ccc3ncc4c(c3c2)n(-c2ccc(N3CC(F)(F)C3)nc2C)c(=O)n4C)cnc1CO [Example 24.3, 1-[6-(3,3-Difluoro-azetidin-1-yl)-2-methyl-pyridin-3-yl]-8-(5-ethylamino-6-hydroxymethyl-pyridin-3-yl)-3-methyl-1,3-dihydro-imidazo[4,5-c]quinolin-2-one] |
| 36 | CNc1ccc(-c2ccc3ncc4c(c3c2)n(-c2ccc(N(C)CCOC)nc2C)c(=O)n4C)cn1 [Example 15.4, 1-{6-[(2-Methoxy-ethyl)-methyl-amino]-2-methyl-pyridin-3-yl}-3-methyl-8-(6-methylamino-pyridin-3-yl)-1,3-dihydro-imidazo[4,5-c]quinolin-2-one] |
| 15 | CCN(C)c1ccc(-n2c(=O)n(C)c3cnc4ccc(-c5ccc(NC)nc5)cc4c32)c(C)n1 [Example 12.1, 1-[6-(Ethyl-methyl-amino)-2-methyl-pyridin-3-yl]-3-methyl-8-(6-methylamino-pyridin-3-yl)-1,3-dihydro-imidazo[4,5-c]quinolin-2-one] |
| 117 | CCOc1ccc(-c2ccc3ncc4c(c3c2)n(-c2ccc(N(C)CCOC)nc2C)c(=O)n4C)cn1 [Example 15.3, 8-(6-Ethoxy-pyridin-3-yl)-1-{6-[(2-methoxy-ethyl)-methyl-amino]-2-methyl-pyridin-3-yl}-3-methyl-1,3-dihydro-imidazo[4,5-c]quinolin-2-one] |
| 7 | COCCN(C)c1ccc(-n2c(=O)n(C)c3cnc4ccc(-c5cnc(N)c(C(F)(F)F)c5)cc4c32)c(C)n1 [Example 15.1, 8-(6-Amino-5-trifluoromethyl-pyridin-3-yl)-1-{6-[(2-methoxy-ethyl)-methyl-amino]-2-methyl-pyridin-3-yl}-3-methyl-1,3-dihydro-imidazo[4,5-c]quinolin-2-one] |
| 10 | CNc1cc(-c2ccc3ncc4c(c3c2)n(-c2ccc(C(F)(F)F)nc2C)c(=O)n4C)cnc1CO [Example 33.2, 8-(6-Hydroxymethyl-5-methylamino-pyridin-3-yl)-3-methyl-1-(2-methyl-6-trifluoromethyl-pyridin-3-yl)-1,3-dihydro-imidazo[4,5-c]quinolin-2-one] |
| 44 | COCCN(C)c1ccc(-n2c(=O)n(C)c3cnc4ccc(-c5cnc(N(C)C)nc5)cc4c32)c(C)n1 [Example 15.5, 8-(2-Dimethylamino-pyrimidin-5-yl)-1-{6-[(2-methoxy-ethyl)-methyl-amino]-2-methyl-pyridin-3-yl}-3-methyl-1,3-dihydro-imidazo[4,5-c]quinolin-2-one] |
| 14 | COCCOc1cc(-c2ccc3ncc4c(c3c2)n(-c2ccc(OC)nc2OC)c(=O)n4C)cnc1C [Example 8.9, 1-(2,6-Dimethoxy-pyridin-3-yl)-8-[5-(2-methoxy-ethoxy)-6-methyl-pyridin-3-yl]-3-methyl-1,3-dihydro-imidazo[4,5-c]quinolin-2-one] |
| 7 | Cc1ccc(-n2c(=O)n(C)c3cnc4ccc(-c5cnc(N)c(C(F)(F)F)c5)cc4c32)c(C)n1 [Example 14.5, 8-(6-Amino-5-trifluoromethyl-pyridin-3-yl)-1-(2,6-dimethyl-pyridin-3-yl)-3-methyl-1,3-dihydro-imidazo[4,5-c]quinolin-2-one] |

Same assay, conditions: read-out: PI3Kdelta/IC50

| IC50 [nM] | Compound |
| --- | --- |
| 249 | COc1ccc(-c2ccc3ncc4c(c3c2)n(-c2ncccc2C)c(=O)n4C)cn1 [Example 3.13, 8-(6-Methoxy-pyridin-3-yl)-3-methyl-1-(3-methyl-pyridin-2-yl)-1,3-dihydro-imidazo[4,5-c]quinolin-2-one] |
| 12 | COc1ccc(-n2c(=O)n(C)c3cnc4ccc(-c5cnc(N)c(C(F)(F)F)c5)cc4c32)c(OC)n1 [Example 8.1, 8-(6-Amino-5-trifluoromethyl-pyridin-3-yl)-1-(2,6-dimethoxy-pyridin-3-yl)-3-methyl-1,3-dihydro-imidazo[4,5-c]quinolin-2-one] |
| 264 | Cc1cccnc1-n1c(=O)n(C)c2cnc3ccc(-c4cnc5ccccc5c4)cc3c21 [Example 3.8, 3-Methyl-1-(3-methyl-pyridin-2-yl)-8-quinolin-3-yl-1,3-dihydro-imidazo[4,5-c]quinolin-2-one] |
| 72 | COc1ccc(-c2ccc3ncc4c(c3c2)n(-c2cccnc2)c(=O)n4C)cc1OC [Example 5.2, 8-(3,4-Dimethoxy-phenyl)-3-methyl-1-pyridin-3-yl-1,3-dihydro-imidazo[4,5-c]quinolin-2-one] |
| 166 | CCOc1ccc(-c2ccc3ncc4c(c3c2)n(-c2cccnc2OC)c(=O)n4C)cn1 [Example 1.5, 8-(6-Ethoxy-pyridin-3-yl)-1-(2-methoxy-pyridin-3-yl)-3-methyl-1,3-dihydro-imidazo[4,5-c]quinolin-2-one] |
| 39 | COc1ccc(-c2ccc3ncc4c(c3c2)n(-c2cccnc2)c(=O)n4C)cn1 [Example 5.4, 8-(6-Methoxy-pyridin-3-yl)-3-methyl-1-pyridin-3-yl-1,3-dihydro-imidazo[4,5-c]quinolin-2-one] |
| 81 | CNc1ccc(-c2ccc3ncc4c(c3c2)n(-c2cccnc2OC)c(=O)n4C)cn1 [Example 1.4, 1-(2-Methoxy-pyridin-3-yl)-3-methyl-8-(6-methylamino-pyridin-3-yl)-1,3-dihydro-imidazo[4,5-c]quinolin-2-one] |
| 26 | COc1ccc(-c2ccc3ncc4c(c3c2)n(-c2cccnc2OC)c(=O)n4C)cn1 [Example 1.1, 1-(2-Methoxy-pyridin-3-yl)-8-(6-methoxy-pyridin-3-yl)-3-methyl-1,3-dihydro-imidazo[4,5-c]quinolin-2-one] |

Reference: patent publication US20100311714A1, “1H-IMIDAZO[4,5-c]QUINOLINONE COMPOUNDS” (priority 2009, published 2010)
